Results taken from the supplement of paper PMC10883282.

Key:
Experiment in all cases: relative viability vs DMSO control (72 h) (fraction); higher = more viable cells
[1] = tested on: HT1080
Procedure, shortened: (§1)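 Relative viability is percent growth read by ATPLite and averaged over up to triplicate wells. Sarcoma cells were seeded in 384-well plates to reach 80–90% confluence and given 2.5 µl of serially diluted compound after 24 h, from source plates of 10 mM to 0.0002 mM. Incubation lasted 72 h at 37 °C, 5% CO2, with 0.1% DMSO vehicle and a 5 µM positive control, and the data were rescaled so 1 equals full and 0 equals none.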

[2] = tested on: G401
Procedure, shortened: as §1

[3] = tested on: SW872
Procedure, shortened: as §1

[4] = tested on: KHOS-NP
Procedure, shortened: as §1

[5] = tested on: HS729
Procedure, shortened: as §1

[6] = tested on: VA-ES-BJ
Procedure, shortened: as §1

[7] = tested on: MES-SA
Procedure, shortened: as §1

[8] = tested on: SYO-1
Procedure, shortened: as §1

[9] = tested on: SW1353
Procedure, shortened: as §1

[10] = tested on: SK-LMS-1
Procedure, shortened: as §1

[11] = tested on: A204
Procedure, shortened: as §1

[12] = tested on: SW684
Procedure, shortened: as §1

CC#CC(=O)N1CCC[C@H]1c1nc(-c2ccc(C(=O)Nc3ccccn3)cc2)c2c(N)nccn12 [Acalabrutinib]
Conditions	relative viability
[1], 0.00017 µM	1.03
[1], 0.00051 µM	1.05
[1], 0.00152 µM	1.05
[1], 0.00457 µM	1.036
[1], 0.01372 µM	1.01
[1], 0.04115 µM	1.029
[1], 0.1235 µM	1.04
[1], 0.3704 µM	1.07
[1], 1.111 µM	1.03
[1], 3.333 µM	1.08
[1], 10 µM	1.04
[2], 0.00017 µM	0.98
[2], 0.00051 µM	0.991
[2], 0.00152 µM	0.997
[2], 0.00457 µM	1.02
[2], 0.01372 µM	1.01
[2], 0.04115 µM	1.01
[2], 0.1235 µM	0.985
[2], 0.3704 µM	0.996
[2], 1.111 µM	1.02
[2], 3.333 µM	0.997
[2], 10 µM	0.917
[3], 0.00017 µM	0.999
[3], 0.00051 µM	1.02
[3], 0.00152 µM	1.01
[3], 0.00457 µM	1.01
[3], 0.01372 µM	0.975
[3], 0.04115 µM	0.95
[3], 0.1235 µM	0.979
[3], 0.3704 µM	0.997
[3], 1.111 µM	1.04
[3], 3.333 µM	1.03
[3], 10 µM	0.987
[4], 0.00017 µM	1.03
[4], 0.00051 µM	1.03
[4], 0.00152 µM	1.04
[4], 0.00457 µM	1.04
[4], 0.01372 µM	1.02
[4], 0.04115 µM	1.03
[4], 0.1235 µM	1.03
[4], 0.3704 µM	1.05
[4], 1.111 µM	1.04
[4], 3.333 µM	1.08
[4], 10 µM	1.08
[5], 0.00017 µM	0.88
[5], 0.00051 µM	0.865
[5], 0.00152 µM	0.903
[5], 0.00457 µM	0.941
[5], 0.01372 µM	0.866
[5], 0.04115 µM	0.877
[5], 0.1235 µM	0.894
[5], 0.3704 µM	0.868
[5], 1.111 µM	0.889
[5], 3.333 µM	0.88
[5], 10 µM	0.95
[6], 0.00017 µM	1.01
[6], 0.00051 µM	1.01
[6], 0.00152 µM	1.03
[6], 0.00457 µM	1.04
[6], 0.01372 µM	1.01
[6], 0.04115 µM	1.01
[6], 0.1235 µM	1
[6], 0.3704 µM	1.05
[6], 1.111 µM	1.08
[6], 3.333 µM	1.07
[6], 10 µM	1.05
[7], 0.00017 µM	0.914
[7], 0.00051 µM	0.905
[7], 0.00152 µM	0.937
[7], 0.00457 µM	0.914
[7], 0.01372 µM	0.908
[7], 0.04115 µM	0.909
[7], 0.1235 µM	0.912
[7], 0.3704 µM	0.926
[7], 1.111 µM	0.909
[7], 3.333 µM	0.914
[7], 10 µM	0.907
[8], 0.00017 µM	0.958
[8], 0.00051 µM	0.946
[8], 0.00152 µM	0.941
[8], 0.00457 µM	0.937
[8], 0.01372 µM	0.945
[8], 0.04115 µM	0.932
[8], 0.1235 µM	0.94
[8], 0.3704 µM	0.934
[8], 1.111 µM	0.928
[8], 3.333 µM	0.948
[8], 10 µM	0.898
[9], 0.00017 µM	0.974
[9], 0.00051 µM	0.933
[9], 0.00152 µM	0.942
[9], 0.00457 µM	0.946
[9], 0.01372 µM	0.947
[9], 0.04115 µM	0.944
[9], 0.1235 µM	0.957
[9], 0.3704 µM	0.936
[9], 1.111 µM	0.962
[9], 3.333 µM	0.8927
[9], 10 µM	0.827
[10], 0.00017 µM	1
[10], 0.00051 µM	1.01
[10], 0.00152 µM	1.03
[10], 0.00457 µM	1.04
[10], 0.01372 µM	1.04
[10], 0.04115 µM	1
[10], 0.1235 µM	1.03
[10], 0.3704 µM	1.04
[10], 1.111 µM	1.06
[10], 3.333 µM	1.03
[10], 10 µM	0.944
[11], 0.00017 µM	1.07
[11], 0.00051 µM	1.07
[11], 0.00152 µM	1.06
[11], 0.00457 µM	1.09
[11], 0.01372 µM	1.1
[11], 0.04115 µM	1.09
[11], 0.1235 µM	1.07
[11], 0.3704 µM	1.05
[11], 1.111 µM	1.05
[11], 3.333 µM	1.02
[11], 10 µM	0.872
[12], 0.00017 µM	1.11
[12], 0.00051 µM	1.14
[12], 0.00152 µM	1.09
[12], 0.00457 µM	1.13
[12], 0.01372 µM	1.13
[12], 0.04115 µM	1.1
[12], 0.1235 µM	1.11
[12], 0.3704 µM	1.15
[12], 1.111 µM	1.14
[12], 3.333 µM	1.12
[12], 10 µM	1.08
